Assay results published in article PMC7470151, “Synthesis and evaluation of 2,4,5-trisubstitutedthiazoles as carbonic anhydrase-III inhibitors” (Journal of Enzyme Inhibition and Medicinal Chemistry, 2020).

Legend:
[1] = biological target: T1, Bovine carbonic anhydrase, isozyme III (Bos taurus, UniProt Q3SZX4); assay: Carbonic anhydrase-III inhibition assay by size exclusion Hummel–Dreyer method (HDM) chromatography; assay type: binding; conditions: HDM size exclusion HPLC; 0.24 mM analyte in mobile phase; 10% acetonitrile, phosphate buffer pH 6.5; 37 °C; CA-III injected at three concentrations
T1 construct: purchased Biovar Ltd, Armenia
T1 sequence (Q3SZX4 1-260): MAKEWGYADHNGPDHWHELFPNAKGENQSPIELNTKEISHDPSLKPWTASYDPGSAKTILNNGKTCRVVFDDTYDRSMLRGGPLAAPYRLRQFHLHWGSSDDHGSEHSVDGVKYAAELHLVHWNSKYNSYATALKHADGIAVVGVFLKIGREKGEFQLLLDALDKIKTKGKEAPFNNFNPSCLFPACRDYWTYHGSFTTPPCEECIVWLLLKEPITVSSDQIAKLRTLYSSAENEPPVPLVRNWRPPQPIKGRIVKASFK
Experimental: HPLC screening was conducted on the LC-2010A HT HPLC system, coupled with column temperature controller, degasser, auto sampler, and isocratic elution system, LC-solution software (to calculate peak area), Shimadzu Corporation, Kyoto, Japan. Back pressure was maintained around 6 MPA. A Phenomenex BioSep-SEC s2000, 300 × 7.8 mm column was used for size exclusion chromatography.
Bovine carbonic anhydrase, isozyme III (Biovar Ltd, Armenia) was stored at 0 °C in refrigerator until use. Enzyme was left for few minutes at room temperature before analysis. HPLC-grade methanol and acetonitrile (Fisher Scientific, Loughborough, UK) were used without further purification. NaH2PO4.H2O (Gainland, Deeside, UK), HCl (Carlo Erba, Italy), NaOH (Lonver, UK), and deionised water were used for the preparation of mobile phase. All the required chemicals for the synthesis of target compounds (12–16b) were procured either from Fisher Scientific, Loughborough, UK or Sigma-Aldrich, St. Louis, MO.
Each target compounds (12–16b) was dissolved in a mixture of acetonitrile: phosphate buffer, pH 6.5 (1:9 v/v) to obtain a final concentration of 0.24 mM. Subsequently, filtration and degassing by sonication were conducted for the mobile phase. Three different enzyme (CA-III) concentrations of […] were prepared from the stock solution (containing 0.865 mg in 10 mL of distilled water) by subsequent dilution method and injected separately in each run in the chromatographic system. All samples were used in duplicate. Vanillic acid was used as a positive control, and toluene was used as a negative control.
The mobile phase used for analysis was chosen according to the optimised conditions obtained, where 10% of organic modifier, 30 mM phosphate buffer (pH = 6.5) and 37 °C temperature was used. Column was pre-equilibrated with the mobile phase for 50 min. The flow rate of mobile phase was maintained at 1 mL/min during the run time. A wavelength of 230 nm (λmax) was selected for the analysis of all the tested compounds.
CA-III inhibitory activities of all the 17 target compounds (12–16b) as shown in Table 1 were carried out by using size exclusion HDM chromatography. The HDM chromatography was preferred over colorimetric assay of CA inhibitors, due to the susceptibility of the colorimetric methods to the intrinsic acidic or alkaline properties of analytes (inhibitors), including the lower catalytic activity of CA-III in CO2 hydration. Moreover, in HDM chromatographic method, the dilution effect of the mobile phase not only provides comparatively larger space for interaction between the macromolecule (CA-III) and analytes, but also lowers the probability of self-aggregation of macromolecules[35–37]^,[41]. The HDM was further optimised prior to use, where mobile phase was buffered to maintain the pH = 6.5 to mimic the physiological condition and to minimise the intrinsic properties of analytes. Moreover, acetonitrile (10%) was used to facilitate the elution of analytes (inhibitors) from the hydrophobic column as well as to prevent the adhesion of macromolecule to the stationary phase of the column. A constant optimised temperature of 37 °C was maintained throughout the chromatographic run, as the increase in temperature could not only influence the protein-ligand interaction but also affect the longevity of the column.
The chromatographic analysis by HDM is basically based on the measurement of the intensity of the formation of vacancy (negative) peak due to the subtraction of CA-III bound portion of analytes from the mobile phase. This method is also independent of the enzyme catalytic activity, thereby considered as more sensitive method for the estimation of inhibitory activities of analytes as compared to the colorimetric assay[35–37]^,[41]. Thus, weak inhibitors created weak vacancy peaks independent of the enzyme concentrations. […]

## COC(=O)c1nc(N)sc1-c1ccccc1 [Compound 12]
[1]
  Ki: > 500 µM

## Nc1nc(C(=O)O)c(-c2ccccc2)s1 [Compound 12a, 2-amino-5-phenylthiazole-4-carboxylic acid]
[1]
  Ki: 0.5 µM

## COC(=O)c1nc(NC(=O)c2ccc([N+](=O)[O-])cc2)sc1-c1ccccc1 [Compound 12b, Methyl-2-(4-nitrobenzamido)-5-substituted-thiazole-4-carboxylate]
[1]
  Ki: > 500 µM

## COC(=O)c1nc(N)sc1-c1ccc(C)cc1 [Compound 13, Methyl-2-amino-5-(p-tolyl)thiazole-4-carboxylate]
other
  melting point: 201 °C
[1]
  Ki: > 500 µM

## Cc1ccc(-c2sc(N)nc2C(=O)O)cc1 [Compound 13a, 2-Amino-5-(p-tolyl)thiazole-4-carboxylic acid]
other
  melting point: 236 °C
[1]
  Ki: 18.9 µM

## COC(=O)c1nc(NC(=O)Nc2ccccc2)sc1-c1ccc(C)cc1 [Compound 13b, Methyl-2-(3-phenylureido)-5-(p-tolyl)thiazole-4-carboxylate]
other
  melting point: 147 °C
[1]
  Ki: > 500 µM

## Cc1ccc(-c2sc(NC(=O)Nc3ccccc3)nc2C(=O)O)cc1 [Compound 13c, 2-(3-Phenylureido)-5-(p-tolyl)thiazole-4-carboxylic acid]
other
  melting point: 226 °C
[1]
  Ki: 174 µM

## COC(=O)c1nc(N)sc1-c1ccc(S(C)(=O)=O)cc1 [Compound 14, Methyl-2-amino-5-(4-(methylsulfonyl)phenyl)thiazole-4-carboxylate]
other
  melting point: 260 °C
[1]
  Ki: > 500 µM

## CS(=O)(=O)c1ccc(-c2sc(N)nc2C(=O)O)cc1 [Compound 14a, 2-Amino-5-(4-(methylsulfonyl)phenyl)thiazole-4-carboxylic acid]
other
  melting point: 238 °C
[1]
  Ki: 86.6 µM

## COC(=O)c1nc(NC(=O)c2ccc(OC)cc2)sc1-c1ccc(S(C)(=O)=O)cc1 [Compound 14b, Methyl-2-(4-methoxybenzamido)-5-(4-(methylsulfonyl)phenyl)thiazole-4-carboxylate]
other
  melting point: 239 °C
[1]
  Ki: > 500 µM

## COc1ccc(C(=O)Nc2nc(C(=O)O)c(-c3ccc(S(C)(=O)=O)cc3)s2)cc1 [Compound 14c, 2-(4-Methoxybenzamido)-5-(4-(methylsulfonyl)phenyl)thiazole-4-carboxylic acid]
other
  melting point: 174 °C
[1]
  Ki: 186 µM

## COC(=O)c1nc(NC(=O)Nc2ccccc2)sc1-c1ccc(S(C)(=O)=O)cc1 [Compound 14d, Methyl 5-(4-(methylsulfonyl)phenyl)-2-(3-phenylureido)thiazole-4-carboxylate]
other
  melting point: 143 °C
[1]
  Ki: > 500 µM

## COC(=O)c1nc(N)sc1-c1ccc(Cl)c([N+](=O)[O-])c1 [Compound 15]
[1]
  Ki: > 500 µM

## Nc1nc(C(=O)O)c(-c2ccc(Cl)c([N+](=O)[O-])c2)s1 [Compound 15a, 2-Amino-5-(4-chloro-3-nitrophenyl)thiazole-4-carboxylic acid]
other
  melting point: 163 °C
[1]
  Ki: 81.2 µM

## COC(=O)c1nc(N)sc1Cc1ccccc1 [Compound 16]
[1]
  Ki: > 500 µM

## Nc1nc(C(=O)O)c(Cc2ccccc2)s1 [Compound 16a]
[1]
  Ki: > 500 µM

## COC(=O)c1nc(NC(=O)Nc2ccccc2)sc1Cc1ccccc1 [Compound 16b, Methyl-5-benzyl-2-(3-phenylureido)thiazole-4-carboxylate]
other
  melting point: 226 °C
[1]
  Ki: > 500 µM

## COc1cc(C(=O)O)ccc1O [Vanillic acid, reference compound]
[1]
  Ki: 6.8 µM
